Changes are numbered by the printed parent chain.
How the values were obtained:
[1] = molecular target: T1, Am2136 E649A (Akkermansia muciniphila, UniProt B2UPR7, E649A); test: GDP regulated enzyme activity assay, mutant; settings: 1 mM GDP, substrate pNP-β-GlcNAc
T1 sequence (B2UPR7 20-756 E649A): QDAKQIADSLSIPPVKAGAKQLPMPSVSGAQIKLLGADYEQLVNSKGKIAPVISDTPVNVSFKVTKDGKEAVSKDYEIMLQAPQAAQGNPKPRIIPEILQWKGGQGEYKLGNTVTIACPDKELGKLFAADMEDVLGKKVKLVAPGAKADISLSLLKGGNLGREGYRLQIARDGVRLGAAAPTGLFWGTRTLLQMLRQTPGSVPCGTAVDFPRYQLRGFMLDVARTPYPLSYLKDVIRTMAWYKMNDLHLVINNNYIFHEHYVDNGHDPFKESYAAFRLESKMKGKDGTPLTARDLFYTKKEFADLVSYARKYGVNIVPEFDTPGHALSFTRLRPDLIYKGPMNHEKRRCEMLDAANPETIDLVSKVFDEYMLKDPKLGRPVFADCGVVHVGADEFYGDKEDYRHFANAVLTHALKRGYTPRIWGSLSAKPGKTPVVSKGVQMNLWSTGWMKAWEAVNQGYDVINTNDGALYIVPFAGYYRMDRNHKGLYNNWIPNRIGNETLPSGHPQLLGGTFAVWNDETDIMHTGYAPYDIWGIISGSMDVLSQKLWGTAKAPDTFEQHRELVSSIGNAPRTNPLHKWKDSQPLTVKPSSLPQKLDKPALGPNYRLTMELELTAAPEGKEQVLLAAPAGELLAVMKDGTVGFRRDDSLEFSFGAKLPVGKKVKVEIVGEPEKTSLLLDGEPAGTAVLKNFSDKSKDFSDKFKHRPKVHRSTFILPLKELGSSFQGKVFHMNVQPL

[2] = molecular target: T2, Am2136 WT (Akkermansia muciniphila, UniProt B2UPR7); test: Enzyme activity assay (pNP-β-GlcNAc hydrolysis) regulated by nucleotides; format: biochemical
T2 construct: The coding region (residue Q20-L756) of Am2136 without signal peptide was based on UniProt; 6XHis (N); made in house; host or cells: E. coli BL21 (DE3)
T2 sequence (B2UPR7 20-756): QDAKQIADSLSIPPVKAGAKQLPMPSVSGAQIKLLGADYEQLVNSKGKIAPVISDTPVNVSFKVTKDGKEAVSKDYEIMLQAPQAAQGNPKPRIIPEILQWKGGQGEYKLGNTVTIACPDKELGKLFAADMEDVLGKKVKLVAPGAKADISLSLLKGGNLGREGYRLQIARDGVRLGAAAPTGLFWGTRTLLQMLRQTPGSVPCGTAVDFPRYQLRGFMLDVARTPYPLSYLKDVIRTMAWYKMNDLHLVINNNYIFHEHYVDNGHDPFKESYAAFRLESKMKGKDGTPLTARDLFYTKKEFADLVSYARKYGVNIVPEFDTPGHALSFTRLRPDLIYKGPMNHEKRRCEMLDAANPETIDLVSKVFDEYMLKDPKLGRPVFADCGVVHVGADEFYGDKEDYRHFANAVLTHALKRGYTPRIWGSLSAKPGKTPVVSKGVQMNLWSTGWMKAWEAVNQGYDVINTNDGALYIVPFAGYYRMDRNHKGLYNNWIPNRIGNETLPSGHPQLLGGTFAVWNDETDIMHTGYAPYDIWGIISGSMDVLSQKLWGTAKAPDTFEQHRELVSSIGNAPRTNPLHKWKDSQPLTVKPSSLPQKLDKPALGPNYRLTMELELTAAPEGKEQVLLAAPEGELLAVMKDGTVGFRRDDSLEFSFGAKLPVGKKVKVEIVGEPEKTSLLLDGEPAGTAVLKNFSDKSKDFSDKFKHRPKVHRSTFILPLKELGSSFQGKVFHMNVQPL

[3] = molecular target: T3, Am2136 R256A (Akkermansia muciniphila, UniProt B2UPR7, R256A); test: Nucleotide binding affinity by intrinsic fluorescence, mutant; parameters: The coding region (residue Q20-L756) of Am2136 without signal peptide was based on UniProt; 6XHis (N); made in house; host or cells: E. coli BL21 (DE3)
T3 sequence (B2UPR7 20-756 R256A): T1 sequence (B2UPR7 20-756 E649A) with R237A, A630E
Protocol: The nucleotide binding ability was determined on Fluorescence Spectrometer Duetta (HORIBA) by measuring the change of peak intensity. The fluorescence was excited at 286 nm and emitted at 336 nm. And the measurement was processed under 400 V voltage with 2.5 nm excitation slit and 5 nm emission slit. The 120 μL reaction mixture contains 0–550 μM nucleotide, 5 μM proteins, 25 mM Tris pH 8.0 and 150 mM NaCl. The sample was incubated at 4°C for 5 min before testing.

[4] = molecular target: T3, Am2136 R256A; test: GDP regulated enzyme activity assay, mutant; settings: 1 mM GDP, substrate pNP-β-GlcNAc
[5] = molecular target: T4, Am2136 Y327F+Y331F (Akkermansia muciniphila, UniProt B2UPR7, Y327F/Y331F); test: GDP regulated enzyme activity assay, mutant; settings: 1 mM GDP, substrate pNP-β-GlcNAc
T4 sequence (B2UPR7 20-756 Y327F/Y331F): T1 sequence (B2UPR7 20-756 E649A) with Y308F, Y312F, A630E

`Nc1nc2c(ncn2[C@@H]2O[C@H](COP(=O)(O)OP(=O)(O)O)[C@@H](O)[C@H]2O)c(=O)[nH]1` [GDP] was tested, and the Vmax [1] was 453 ± 6 µmol/min, the “maximal activation of Am2136” value ([2]; 1 mM GDP) was “up to twofold” and the “effect on Am2136 hydrolysis activity” value ([2]; GDP 0–2.65 mM, substrate pNP-β-GlcNAc) was “concentration-dependent enhancement”. For the same compound, the Vmax ([2]; WT, 1 mM nucleotide, substrate pNP-β-GlcNAc, 37°C) was 442 ± 7 µmol/min, the Kd [3] was 158 ± 10.9 µM and the Vmax [4] was 465 ± 15 µmol/min. It also gave a Vmax [5] of 473 ± 6 µmol/min.
